According to paper PMC11084959 (International Journal of Molecular Sciences, 2024):
Entries after “also recorded” stand apart in the source; their conditions may differ. Where a SMILES comes first, the peptide text is derived from it. Bridges are numbered along the chain shown (N, C = ends). Where no end group is shown, it is not given here.

Experiments:
[1] = molecular target: T1, recombinant hCaV3.3 channels (Homo sapiens, UniProt Q9P0X4); test: QPatch whole-cell patch-clamp, CaV3.3; format: cell-based
T1 construct: expressed in transfected cells
Procedure: (§1) The human embryonic kidney 293 (HEK 293) cell lines (from Emmanuel Bourinet, Montpellier, France) stably expressing CaV3.2 or CaV3.3 [41] were cultured under 5% carbon dioxide at 37 °C in Dulbecco’s Modified Eagle Medium (DMEM) Glutamax (Gibco, Life Technologies, Carlsbad, CA, USA) supplemented with 10% (v/v) fetal bovine serum (FBS), 100 U/mL penicillin, 100 μg/mL streptomycin (Gibco, Life Technologies), and 750 μg/mL geneticin (G418) (Gibco, Life Technologies). The Chinese Hamster Ovary (CHO) cell lines (Emmanuel Bourinet, Montpellier, France) expressing CaV3.1 [42] were cultured under 5% carbon dioxide at 37 °C in Alpha Minimum Essential Media (MEM) Glutamax (Gibco, Life Technologies), supplemented with 10% (v/v) fetal bovine serum (FBS) and 300 μg/mL geneticin (G418) (Gibco, Life Technologies). The human neuroblastoma SH-SY5Y cells (Victor Diaz, Goettingen, Germany) were cultured under 5% carbon dioxide at 37 °C in RPMI 1640 antibiotic-free medium (Invitrogen, Carlsbad, CA, USA), supplemented with 15% FBS and 2 mM GlutaMAX™ (Invitrogen). D-PBS (Gibco, Life Technologies) was used to wash the cells, and 0.25% Trypsin-EDTA (Gibco, Life Technologies) was used to detach the cells from the flask surface. They were split in a ratio of 1:5 (ideally 1000 cells/cm^2) when they reached 70–80% confluence (every 2–3 days).
(§2) Whole-cell patch-clamp experiments were performed on an automated electrophysiology platform QPatch 16 X (Sophion Bioscience A/S, Ballerup, Denmark) in a single-hole configuration using 16-channel planar patch chip QPlates (Sophion Bioscience A/S). The extracellular recording solution contained, in mM: TEACl 157, MgCl2 0.5, CaCl2 5, and HEPES 10; pH 7.4 adjusted with TEAOH; and osmolarity 320 mOsm. The intracellular pipette solution contained, in mM: CsF 140, EGTA 1, HEPES 10, and NaCl 10; pH 7.2 adjusted with CsOH; and osmolarity 325 mOsm. […]
(§3) The data were plotted and analyzed using GraphPad Prism v8.0 (GraphPad Software Inc., San Diego, CA, USA). […]

[2] = molecular target: T2, recombinant hCaV3.2 channels (Homo sapiens, UniProt O95180); test: QPatch whole-cell patch-clamp, CaV3.2; format: cell-based
T2 construct: expressed in transfected cells
Procedure: as §1, §2, §3

[3] = test system: recombinant hCaV3.1 channel; test: QPatch whole-cell patch-clamp, CaV3.1; format: cell-based; details: human CaV3.1 in CHO cells
Procedure: as §1, with “They were split in a ratio of 1:5 (ideally 1000 cells/cm^2) when they reached 70–80% confluence (every 2–3 days).” left out
as §3

[4] = test system: Lucilia cuprina (Australian sheep blowflies); test: Insecticidal activity against sheep blowflies (injection); format: in vivo; details: 1, 4 and 10 μg per fly injected; 10 flies per group; paralytic effects at 0.5, 1, 2 and 24 h
[5] = test system: human HVA N-type CaV2.2; test: N-type CaV2.2 FLIPR assay in SH-SY5Y cells; format: cell-based; details: 0.781–200 µM, 10 µM nifedipine, agonist 90 mM KCl + 5 mM CaCl2, n = 4
Procedure: as §1, with “D-PBS (Gibco, Life Technologies) was used to wash the cells, and 0.25% Trypsin-EDTA (Gibco, Life Technologies) was used to detach the cells from the flask surface. They were split in a ratio of 1:5 (ideally 1000 cells/cm^2) when they reached 70–80% confluence (every 2–3 days).” left out
(§4) SH-SY5Y cells were seeded into 384-well black wall clear bottom plates at a density of 15,000 cells per well, resulting in 90–95% confluence after 24 h. […] The fluorescence readings were recorded and converted as described previously, and an agonist containing 90 mM KCl + 5 mM CaCl2 was used in the second addition.

[6] = test system: L-type CaVs; test: L-type CaV FLIPR assay in SH-SY5Y cells; format: cell-based, human; details: 0.781–200 µM, 1 µM CVID, agonist 90 mM KCl + 5 mM CaCl2, n = 4
Procedure: as §1, with “D-PBS (Gibco, Life Technologies) was used to wash the cells, and 0.25% Trypsin-EDTA (Gibco, Life Technologies) was used to detach the cells from the flask surface. They were split in a ratio of 1:5 (ideally 1000 cells/cm^2) when they reached 70–80% confluence (every 2–3 days).” left out
as §4

[7] = test system: T-type CaVs (CaV3.1 and CaV3.2); details: ref [9],[10]; cited from earlier work
Description: Scorpions are venomous arachnids of the order Scorpiones, with around 2798 currently (December 2023) described species distributed on all continents except Antarctica. Scorpion venoms are complex mixtures of peptides, enzymes, mucoproteins, amino acids (aa), nucleotides, lipids, amines, heterocyclic components, inorganic salts, and probably other yet to be described substances. They are rich sources of neurotoxic polypeptides that recognize and bind to ion channels of excitable and non-excitable cells and modulate their functional properties. Based on the specific binding propertie ...

T1 sequence (Q9P0X4 whole entry): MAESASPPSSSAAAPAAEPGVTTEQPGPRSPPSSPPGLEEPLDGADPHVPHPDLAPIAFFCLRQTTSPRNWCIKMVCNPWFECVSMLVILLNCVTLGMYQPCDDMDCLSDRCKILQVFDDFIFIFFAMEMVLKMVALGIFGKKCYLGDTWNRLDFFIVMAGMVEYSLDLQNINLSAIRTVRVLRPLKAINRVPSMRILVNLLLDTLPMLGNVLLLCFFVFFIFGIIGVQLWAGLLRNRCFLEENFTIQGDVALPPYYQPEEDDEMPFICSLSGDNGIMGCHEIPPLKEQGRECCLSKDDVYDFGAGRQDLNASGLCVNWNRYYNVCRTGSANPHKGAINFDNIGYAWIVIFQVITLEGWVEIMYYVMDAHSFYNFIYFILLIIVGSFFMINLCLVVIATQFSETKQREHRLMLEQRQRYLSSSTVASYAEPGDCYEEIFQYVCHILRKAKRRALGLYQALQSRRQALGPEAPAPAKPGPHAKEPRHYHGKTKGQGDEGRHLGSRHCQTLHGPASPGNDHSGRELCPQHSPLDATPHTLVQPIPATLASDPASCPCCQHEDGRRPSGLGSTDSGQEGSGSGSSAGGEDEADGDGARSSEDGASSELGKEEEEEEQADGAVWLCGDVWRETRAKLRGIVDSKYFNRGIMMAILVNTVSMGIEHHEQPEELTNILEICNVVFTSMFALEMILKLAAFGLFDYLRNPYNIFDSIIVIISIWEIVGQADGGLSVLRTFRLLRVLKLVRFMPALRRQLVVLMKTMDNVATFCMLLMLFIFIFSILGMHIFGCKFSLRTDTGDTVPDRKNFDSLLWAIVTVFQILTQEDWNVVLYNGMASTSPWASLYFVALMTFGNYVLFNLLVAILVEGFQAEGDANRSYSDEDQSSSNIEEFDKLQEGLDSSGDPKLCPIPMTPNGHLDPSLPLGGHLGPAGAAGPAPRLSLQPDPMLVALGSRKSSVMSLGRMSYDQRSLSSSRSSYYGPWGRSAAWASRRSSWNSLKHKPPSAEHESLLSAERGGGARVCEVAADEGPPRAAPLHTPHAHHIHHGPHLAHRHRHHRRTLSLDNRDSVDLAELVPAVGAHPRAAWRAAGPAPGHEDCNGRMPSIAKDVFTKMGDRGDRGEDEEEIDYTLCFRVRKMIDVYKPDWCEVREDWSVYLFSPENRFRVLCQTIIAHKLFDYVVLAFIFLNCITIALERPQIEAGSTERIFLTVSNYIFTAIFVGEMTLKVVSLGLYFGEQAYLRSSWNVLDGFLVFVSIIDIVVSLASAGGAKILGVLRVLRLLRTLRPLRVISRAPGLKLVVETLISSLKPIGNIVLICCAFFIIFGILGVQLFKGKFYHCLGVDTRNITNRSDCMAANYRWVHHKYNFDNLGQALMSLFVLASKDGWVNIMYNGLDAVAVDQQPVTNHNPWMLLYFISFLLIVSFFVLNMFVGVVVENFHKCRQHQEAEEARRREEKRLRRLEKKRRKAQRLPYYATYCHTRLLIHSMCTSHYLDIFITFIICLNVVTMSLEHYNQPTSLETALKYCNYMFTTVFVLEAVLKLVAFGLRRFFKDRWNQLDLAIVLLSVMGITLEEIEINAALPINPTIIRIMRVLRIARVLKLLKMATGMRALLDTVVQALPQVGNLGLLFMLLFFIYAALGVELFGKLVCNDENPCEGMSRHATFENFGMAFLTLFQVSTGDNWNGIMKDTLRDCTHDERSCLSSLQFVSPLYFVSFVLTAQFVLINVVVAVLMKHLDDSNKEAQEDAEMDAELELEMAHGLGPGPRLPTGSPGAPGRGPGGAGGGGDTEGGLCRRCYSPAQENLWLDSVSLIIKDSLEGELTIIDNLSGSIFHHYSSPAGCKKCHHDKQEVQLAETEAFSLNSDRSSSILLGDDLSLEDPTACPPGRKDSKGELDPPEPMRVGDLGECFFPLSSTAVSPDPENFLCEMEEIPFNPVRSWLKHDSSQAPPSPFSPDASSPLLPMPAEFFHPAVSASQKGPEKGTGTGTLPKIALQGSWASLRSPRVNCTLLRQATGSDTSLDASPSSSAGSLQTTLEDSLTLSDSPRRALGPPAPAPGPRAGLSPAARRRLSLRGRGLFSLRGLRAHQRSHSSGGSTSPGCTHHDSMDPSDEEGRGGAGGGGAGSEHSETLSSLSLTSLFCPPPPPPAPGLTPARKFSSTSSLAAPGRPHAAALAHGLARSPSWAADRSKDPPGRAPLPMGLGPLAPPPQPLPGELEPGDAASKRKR
T2 sequence (O95180 whole entry): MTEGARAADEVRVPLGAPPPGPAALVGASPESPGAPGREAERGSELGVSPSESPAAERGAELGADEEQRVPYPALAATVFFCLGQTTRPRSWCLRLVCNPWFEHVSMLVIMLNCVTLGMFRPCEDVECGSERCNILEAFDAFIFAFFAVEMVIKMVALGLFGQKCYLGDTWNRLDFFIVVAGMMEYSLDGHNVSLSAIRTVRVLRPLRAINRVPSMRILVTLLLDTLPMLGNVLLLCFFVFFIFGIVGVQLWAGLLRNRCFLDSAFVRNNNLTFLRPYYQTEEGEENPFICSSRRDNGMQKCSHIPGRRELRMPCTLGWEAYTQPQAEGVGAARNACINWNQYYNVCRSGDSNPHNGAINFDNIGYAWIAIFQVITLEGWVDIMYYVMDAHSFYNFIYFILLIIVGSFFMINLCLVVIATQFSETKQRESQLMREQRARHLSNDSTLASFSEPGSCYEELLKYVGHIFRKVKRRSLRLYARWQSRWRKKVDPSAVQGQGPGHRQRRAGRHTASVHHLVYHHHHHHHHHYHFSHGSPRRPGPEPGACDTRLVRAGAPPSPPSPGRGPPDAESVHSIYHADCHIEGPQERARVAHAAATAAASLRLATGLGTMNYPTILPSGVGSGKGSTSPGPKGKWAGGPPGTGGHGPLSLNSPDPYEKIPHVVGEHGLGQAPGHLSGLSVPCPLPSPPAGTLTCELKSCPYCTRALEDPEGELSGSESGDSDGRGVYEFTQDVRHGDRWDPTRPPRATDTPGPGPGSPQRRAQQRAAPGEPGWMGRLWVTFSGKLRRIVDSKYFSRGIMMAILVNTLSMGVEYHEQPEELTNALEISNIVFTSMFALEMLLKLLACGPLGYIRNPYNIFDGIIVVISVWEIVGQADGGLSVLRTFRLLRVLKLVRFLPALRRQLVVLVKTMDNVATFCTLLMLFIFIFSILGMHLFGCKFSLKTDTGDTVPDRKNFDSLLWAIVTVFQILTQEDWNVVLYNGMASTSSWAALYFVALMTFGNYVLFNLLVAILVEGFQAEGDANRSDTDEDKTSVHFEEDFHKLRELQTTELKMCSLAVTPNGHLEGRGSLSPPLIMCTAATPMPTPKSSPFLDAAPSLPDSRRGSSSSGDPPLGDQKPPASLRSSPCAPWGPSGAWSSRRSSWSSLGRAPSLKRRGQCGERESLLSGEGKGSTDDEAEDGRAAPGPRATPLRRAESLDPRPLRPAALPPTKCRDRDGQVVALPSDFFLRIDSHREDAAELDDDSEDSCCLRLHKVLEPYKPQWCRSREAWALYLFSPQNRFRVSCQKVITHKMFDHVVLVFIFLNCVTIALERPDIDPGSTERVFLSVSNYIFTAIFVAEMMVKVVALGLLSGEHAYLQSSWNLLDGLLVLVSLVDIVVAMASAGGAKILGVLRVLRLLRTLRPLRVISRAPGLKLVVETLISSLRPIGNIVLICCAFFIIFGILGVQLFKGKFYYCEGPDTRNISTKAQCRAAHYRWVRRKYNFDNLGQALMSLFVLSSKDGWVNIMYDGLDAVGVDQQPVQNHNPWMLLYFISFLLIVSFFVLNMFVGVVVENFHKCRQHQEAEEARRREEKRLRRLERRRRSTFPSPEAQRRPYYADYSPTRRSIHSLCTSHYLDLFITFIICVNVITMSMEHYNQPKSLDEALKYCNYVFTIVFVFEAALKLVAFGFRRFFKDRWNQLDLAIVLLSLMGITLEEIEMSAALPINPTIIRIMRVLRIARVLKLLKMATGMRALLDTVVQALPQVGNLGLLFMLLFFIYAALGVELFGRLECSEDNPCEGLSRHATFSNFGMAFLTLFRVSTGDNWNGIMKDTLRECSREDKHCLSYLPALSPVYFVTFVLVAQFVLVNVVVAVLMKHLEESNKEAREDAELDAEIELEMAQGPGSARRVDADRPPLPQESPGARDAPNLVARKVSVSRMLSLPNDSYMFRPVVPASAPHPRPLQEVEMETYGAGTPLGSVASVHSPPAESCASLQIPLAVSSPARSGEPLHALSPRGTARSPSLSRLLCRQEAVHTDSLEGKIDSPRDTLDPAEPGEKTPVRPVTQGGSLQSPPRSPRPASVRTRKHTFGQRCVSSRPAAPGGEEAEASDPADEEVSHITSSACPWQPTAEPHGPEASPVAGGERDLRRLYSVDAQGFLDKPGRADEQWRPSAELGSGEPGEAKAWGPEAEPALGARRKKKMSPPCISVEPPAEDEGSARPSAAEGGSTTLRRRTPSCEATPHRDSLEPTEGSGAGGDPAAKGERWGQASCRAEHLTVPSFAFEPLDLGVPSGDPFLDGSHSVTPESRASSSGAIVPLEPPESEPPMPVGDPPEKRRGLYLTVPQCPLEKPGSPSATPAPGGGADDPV

## C[C@@H](O)[C@@H]1NC(=O)[C@@H](NC(=O)[C@@H](N)Cc2c[nH]cn2)CSSC[C@@H](C(=O)N[C@@H](Cc2c[nH]c3ccccc23)C(N)=O)NC(=O)[C@H](Cc2c[nH]cn2)NC(=O)[C@H](CC(N)=O)NC(=O)[C@H](CO)NC(=O)[C@H](CC(N)=O)NC(=O)[C@@H]2CCCN2C1=O [Hf1a-NH2] (H-HCTPNSNHCW-NH2; disulfide 2-9)
[1]; 25 μM, holding −90 mV, 200 ms to −10 mV, n = 4, read-out: CaV3.3 current inhibition at 25 μM
  inhibition at 25 µM: 44.6%
[1]; partial inhibition, QPatch, holding −90 mV, 200 ms steps to −10 mV, 5 mM CaCl2, 0.1% BSA, pH 7.4, n = 4, means ± SEM, read-out: IC50 (CaV3.3 depolarized currents)
  IC50: 490 nM
[2]; 25 μM, holding −90 mV, 200 ms to −25 mV, n = 4, read-out: CaV3.2 current inhibition at 25 μM
  inhibition at 25 µM: 31.7%
[2]; partial inhibition, QPatch, holding −90 mV, 200 ms steps to −25 mV, 5 mM CaCl2, 0.1% BSA, pH 7.4, n = 4, means ± SEM, read-out: IC50 (CaV3.2 depolarized currents)
  IC50: 1180 nM
24 h post-injection, intraplantar
  Adverse effects on locomotor performance: no adverse effects on locomotor performance
mouse, in vivo
  Abnormal motor function during treadmill run: no abnormal motor functions like foot slips were noticed
  Distance covered on treadmill: showed no difference

## HCTPNSNHCW (disulfide 2-9 (inferred)) [Hf1a-OH]
[1]; QPatch, human CaV3.3 in HEK 293 cells
  Effect on CaV3.3 current (in words): failed to show activity in any of the three subtypes; also recorded: did not show activity against any of the three T-type subtypes
[2]; QPatch, human CaV3.2 in HEK 293 cells
  Effect on CaV3.2 current (in words): failed to show activity in any of the three subtypes; also recorded: did not show activity against any of the three T-type subtypes
[3]
  Effect on CaV3.1 current (in words): failed to show activity in any of the three subtypes; also recorded: did not show activity against any of the three T-type subtypes
[4]
  Insecticidal activity against adult sheep blowflies: no insecticidal activity; also recorded: neither Hf1a-OH nor Hf1a-NH2 showed observable insecticidal activity
[5]
  Effect on N-type CaV2.2: neither form showed activity; also recorded: neither form of ω-Buthitoxin-Hf1a affected N-type or L-type CaVs; also recorded: Neither Hf1a-NH2 nor Hf1a-OH showed activity against L- and N-type HVA CaVs
[6]
  Effect on L-type CaVs: neither form showed activity; also recorded: neither form of ω-Buthitoxin-Hf1a affected N-type or L-type CaVs; also recorded: Neither Hf1a-NH2 nor Hf1a-OH showed activity against L- and N-type HVA CaVs

B1: kurtoxin (protein, UniProt P58910 1-63, looked up)
Kurtoxin: KIDGYPVDYWNCKRICWYNNKYCNDLCKGLKADSGYCWGWTLSCYCQGLPDNARIKRSGRCRA
[7]
  Selective binding to T-type CaVs (CaV3.1 and CaV3.2): first and only scorpion toxin shown to selectively bind T-type CaVs (CaV3.1 and CaV3.2)
